The values that follow are results of earlier work, collected in US20060191043A1, “Low maintenance turfgrass” (priority 2004, published 2006).

Series [1] deals with native EPSPS from E. coli (Escherichia coli, UniProt P0A6D3). The note with it: read-out: apparent Km for PEP.
In series [2] the target is glyphosate-resistant EPSPS isolate having a single amino acid substitution of an alanine for the glycine at position 96 (Escherichia coli, UniProt P0A6D3, G96A). The note with it: alanine for glycine at position 96, read-out: apparent Ki for glyphosate.
Chain of glyphosate-resistant EPSPS isolate having a single amino acid substitution of an alanine for the glycine at position 96 (P0A6D3 whole entry G96A): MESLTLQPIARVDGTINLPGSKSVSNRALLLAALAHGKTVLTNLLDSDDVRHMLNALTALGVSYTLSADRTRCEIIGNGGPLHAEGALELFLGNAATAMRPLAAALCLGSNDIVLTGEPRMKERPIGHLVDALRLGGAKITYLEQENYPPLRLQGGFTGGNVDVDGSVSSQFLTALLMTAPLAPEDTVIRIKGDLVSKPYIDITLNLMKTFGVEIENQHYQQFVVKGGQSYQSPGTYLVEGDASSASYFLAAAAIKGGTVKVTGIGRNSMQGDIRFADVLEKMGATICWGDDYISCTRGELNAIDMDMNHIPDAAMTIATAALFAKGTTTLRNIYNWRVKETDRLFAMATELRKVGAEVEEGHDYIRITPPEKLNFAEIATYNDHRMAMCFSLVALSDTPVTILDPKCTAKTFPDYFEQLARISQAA

Chain of native EPSPS from E. coli (P0A6D3 whole entry): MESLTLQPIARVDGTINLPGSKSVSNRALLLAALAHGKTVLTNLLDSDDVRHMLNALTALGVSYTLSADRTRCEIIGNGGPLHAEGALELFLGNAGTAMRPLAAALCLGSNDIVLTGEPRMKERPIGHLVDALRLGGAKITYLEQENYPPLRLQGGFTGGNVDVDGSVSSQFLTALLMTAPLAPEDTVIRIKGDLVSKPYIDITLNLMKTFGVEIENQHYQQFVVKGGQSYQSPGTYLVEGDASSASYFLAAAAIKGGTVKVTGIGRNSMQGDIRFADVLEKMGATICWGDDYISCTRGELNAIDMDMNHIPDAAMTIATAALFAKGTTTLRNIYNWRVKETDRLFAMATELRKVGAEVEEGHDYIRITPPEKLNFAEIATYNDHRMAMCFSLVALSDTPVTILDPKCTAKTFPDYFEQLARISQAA

The Km is the substrate concentration at which the rate is half of its maximum. On to `C=C(OP(=O)(O)O)C(=O)O` [PEP], for which the Michaelis-Menten constant (Km) in series [1] is 10 µM.

Turning to `O=C(O)CNCP(=O)(O)O` [glyphosate, N-phosphonomethylglycine], in series [2], the Ki was 4 mM.
